Assay results: patent publication KR20230169706A, “베타-카리오필렌을 포함하는 존속성 세균 억제용 조성물” (국민대학교산학협력단, priority 2022, dated 2023)
“Also recorded” adds a separate entry of the source.

Test system: persister cells of Staphylococcus aureus ATCC 6538 [황색포도상구균(Staphylococcus aureus ATCC 6538), 존속성 세균(persister cell)]
Assay: Persister cell inhibition by beta-caryophyllene co-treated with antibiotics at 10x MIC (CFU count)
Type: cell-based

C=C1CC/C=C(\C)CC[C@@H]2[C@@H]1CC2(C)C [베타-카리오필렌, β-caryophyllene]
amount of persister cells (beta-caryophyllene 1 mM or more, each antibiotic (oxacillin, tobramycin, ciprofloxacin) at 10x MIC, 24 h): 상당량 감소
inhibition of persister cells (beta-caryophyllene 2 mM or more, all antibiotics (oxacillin, tobramycin, ciprofloxacin) at 10x MIC, 24 h, about 80% or more): ≥ 80%
amount of persister cells (beta-caryophyllene 1 to 10 mM): 크게 저하
inhibitory effect on persister cells (beta-caryophyllene 2 to 10 mM, various antibiotics): ≥ 80%
amount of persister cells (beta-caryophyllene together with antibiotic at 10x MIC, 24 h, no beta-caryophyllene concentration stated): 존속성 세균의 양이 감소
inhibition of persister cells (ciprofloxacin, weight ratio beta-caryophyllene:antibiotic about 10:1 to 100:1): ≥ 80%
inhibition of persister cells (oxacillin, weight ratio beta-caryophyllene:antibiotic about 100:1 to 800:1): ≥ 80%
inhibition of persister cells (in words) (persister cells not killed by oxacillin, tobramycin or ciprofloxacin, no beta-caryophyllene concentration stated): 상당량 억제; also recorded: 효과적으로 억제; also recorded: 우수한 억제 활성
inhibition of persister cells (tobramycin, weight ratio beta-caryophyllene:antibiotic about 5:1 to 30:1): ≥ 80%
